Values after ≈ are worked out from the molar mass of the structure shown.

For series [1], the system named is wild-type (wt) M. tuberculosis strain. Description: microbe, parasite or virus in culture. It counts as cell-based, Mycobacterium tuberculosis. The following applies: […], OD590 after 5 days at 37 °C, average ± SD of at least two experiments, b = single value; for MIC: Mycobacterium tuberculosis, 120 h, read-out: WT MIC.
Series [2] can be described thus: in vitro. The series is classed as cell-based, African green monkey. The note with it: African green monkey. Here is the method: Cytotoxicity against African green monkey adult kidney cell (Vero cells) was determined as previously described using CellTiter-Glo reagent.[44] The concentration causing 50% growth inhibition (IC50) was calculated by fitting the inhibition curves using the Levenberg–Marquardt algorithm.

Series [3] addresses T1, LepB (Mycobacterium tuberculosis, UniProt P9WKA1).
T1 construct: we used purified membrane fractions to develop an in vitro assay for signal peptide cleavage; host or cells: γ-irradiated whole M. tuberculosis H37Rv; Triton X-114 membrane fraction
T1 sequence (P9WKA1 1-294): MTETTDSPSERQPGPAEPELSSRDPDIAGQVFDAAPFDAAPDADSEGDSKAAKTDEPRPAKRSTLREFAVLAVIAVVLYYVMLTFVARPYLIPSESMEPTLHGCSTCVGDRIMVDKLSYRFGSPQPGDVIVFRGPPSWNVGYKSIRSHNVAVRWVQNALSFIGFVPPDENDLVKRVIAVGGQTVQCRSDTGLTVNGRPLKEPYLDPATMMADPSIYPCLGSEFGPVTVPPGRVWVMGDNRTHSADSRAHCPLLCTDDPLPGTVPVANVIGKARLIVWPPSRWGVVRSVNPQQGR
Description: LepB membrane assay (fluorogenic signal peptide cleavage by cell membrane fraction). The series is classed as biochemical. The note with it: M. tuberculosis H37Rv cell membrane fraction, 2 μM peptide substrate, 4 h at 37 °C.

Series [4] deals with M. tuberculosis strain SPAM13C (LepB-UE). Description: microbe, parasite or virus in culture. It counts as cell-based, Mycobacterium tuberculosis. The following applies: for LepB-UE MIC / MIC: M. tuberculosis strain SPAM13C, OD590 after 5 days at 37 °C, average ± SD of at least two experiments, b = single value; for MIC: Mycobacterium tuberculosis, 120 h, read-out: LepB-UE MIC; for Change in potency against LepB-UE compared to compound 1: decrease in potency relative to compound 1.

Broadly, the CC50 is the concentration giving 50% cytotoxicity. As usually defined, the IC50 is the concentration that inhibits the measured activity by half. On to `O=C(N/N=C/c1cccc2cccnc12)c1ccn(Cc2ccc(Cl)cc2)n1` [Compound 12], for which the MIC is 22 ± 2 µM (≈ 8.58 µg/mL) in series [1] and 3.5 to 15 µM (≈ 1.36 to 5.85 µg/mL) in series [4]. For the same molecule, half-maximal cytotoxicity in series [2] (CC50) was put at 34 µM. The molecule further registered an IC50 in series [3] greater than 200 µM. Moreover, the “LepB-UE MIC” value in series [4] came out at 6.3 ± 3.5 µM.
Take `C/C(=N\Nc1nc(C)cc(C)n1)c1cccs1` [Compound 21]: in series [1], the MIC is greater than 200 µM. Also, the CC50 in series [2] is greater than 100 µM. In series [3], the IC50 came out at 120 µM. Also, in series [4], the “Change in potency against LepB-UE compared to compound 1” value (from here on “Change in potency against LepB-UE”) is listed as “at least 10 fold”.
Taken in the same sequence, the figures for `C/C(=N\Nc1nc(C)cc(C)n1)c1ccco1` [Compound 20] were greater than 200 µM, greater than 100 µM, 74 µM and “at least 10 fold”.
Consider `Cc1cc(C)nc(NN=C(c2ccccc2)c2ccccc2)n1` [Compound 27], for which the MIC in series [1] amounted to 17 ± 8 µM (≈ 5.14 µg/mL). In addition, the CC50 in series [2] turned out to be 0.1 µM. For the same molecule, the IC50 in series [3] was greater than 200 µM. Further, in series [4], the MIC is 2.2 ± 0.7 µM (≈ 0.665 µg/mL) and the “Change in potency against LepB-UE” value was “little impact on antitubercular activity compared to compound 1”.
Take `Oc1ccc(/C=N/Nc2ccc3ccccc3n2)c(O)c1` [Compound 8]: the figures for the MIC in series [1] and in series [4] were greater than 200 µM and 3.6 ± 1.1 µM (≈ 1.01 µg/mL), respectively. In series [2], this molecule registered a CC50 of 6.7 µM. The molecule further gave an IC50 in series [3] greater than 200 µM.
Consider `C/C(=N\NC(=O)C1CCCN(S(=O)(=O)c2ccccc2)C1)c1ccccn1` (stereo not drawn) [Compound 38], for which the MIC in series [1] stood at 17 ± 5 µM (≈ 6.57 µg/mL). The molecule further displayed a CC50 in series [2] of 9.5 µM. Besides, the IC50 in series [3] was 180 µM. In series [4], the “LepB-UE MIC” value stood at 4.9 ± 0.2 µM and the MIC was in the range of 3.5 to 15 µM (≈ 1.35 to 5.8 µg/mL).
As for `O=[N+]([O-])c1ccc(O)c(/C=N/Nc2ccccn2)c1` [Compound 3], the MIC in series [1] came to 11 µM (≈ 2.84 µg/mL); in series [4] it was 4.7 µM (≈ 1.21 µg/mL). The midpoint of cytotoxicity in series [2], the CC50, lay at 2.9 µM. Besides, 12 µM corresponded to half-maximal inhibition in series [3] (IC50).
For `C/C(=N\Nc1nc(C)cc(C)n1)c1ccccn1` [Compound 1], the MIC in series [1] is 18 ± 1 µM (≈ 4.34 µg/mL); in series [4], 3 ± 1.1 µM (≈ 0.724 µg/mL). Also, the midpoint of cytotoxicity in series [2], the CC50, lay at 2.3 µM. Besides, the IC50 in series [3] came to 39 µM.
As for `Cc1ccc(Nc2nc(N/N=C/c3ccccc3O)nc(N3CCOCC3)n2)c(Br)c1` [Compound 9], the MIC in series [1] was found to be 57 ± 24 µM (≈ 27.6 µg/mL); in series [4] it was 11 ± 1 µM (≈ 5.33 µg/mL). This molecule also showed a CC50 in series [2] of 13 µM. Also, the IC50 in series [3] was greater than 200 µM.
For `C/C(=N\NC(=O)c1ccc(N2CCCC2=O)cc1)c1ccccn1` [Compound 11], in series [1], the MIC was less than 10 µM and the “WT MIC” value stood at 14 ± 7 µM. The CC50 in series [2] was 6.1 µM. In addition, the IC50 in series [3] turned out to be 26 µM. Besides, in series [4], the “LepB-UE MIC” value is 3.5 ± 1.8 µM and the MIC lay in the range of 3.5 to 15 µM (≈ 1.13 to 4.84 µg/mL).
Regarding `O=C(N/N=C/c1cccc2cccnc12)c1ccn(Cc2ccc(Cl)cc2Cl)n1` [Compound 13], the MIC in series [1] worked out at 18 ± 5 µM (≈ 7.64 µg/mL). The molecule further showed a CC50 in series [2] of 21 µM. The IC50 in series [3] was greater than 200 µM. In series [4], the “LepB-UE MIC” value was 4.7 ± 0.6 µM and the MIC was in the range of 3.5 to 15 µM (≈ 1.49 to 6.36 µg/mL).
As to `CCOC(=O)CN1C(=O)/C(=N\NC(=O)c2ccccn2)c2ccccc21` [Compound 14], the MIC in series [1] is greater than 200 µM; in series [4], 3.5 to 15 µM (≈ 1.23 to 5.29 µg/mL). Also, in series [2], the CC50 is 32 µM. Moreover, the IC50 in series [3] is greater than 200 µM. The “LepB-UE MIC” value in series [4] amounted to 4.9 ± 1.9 µM.
Regarding `C/C(=N\Nc1nc(C)cc(C)n1)c1cccc(O)c1` [Compound 23], the MIC in series [1] was found to be 115 µM (≈ 29.5 µg/mL). This molecule displayed a CC50 in series [2] greater than 100 µM. Moreover, in series [3], inhibition was half-maximal at 140 µM (IC50). Further, in series [4], the “LepB-UE MIC” value is 54 ± 2 µM, the MIC fell in the range of 30 to 90 µM (≈ 7.69 to 23.1 µg/mL) and the “Change in potency against LepB-UE” value is reported as “at least 10 fold”.
With `Cc1cc(C)nc(-n2nc(C)cc2C)n1` [Compound 43], the MIC in series [1] turned out to be 115 ± 23 µM (≈ 23.3 µg/mL); in series [4] it was 48 ± 2 µM (≈ 9.71 µg/mL). In series [2], the CC50 was greater than 100 µM. Further, the IC50 in series [3] is greater than 200 µM.
Taken in the same sequence, the figures for `Cc1cc(C)nc(-n2nc(C)c(Cc3ccccc3C)c2O)n1` [Compound 47] were greater than 200 µM, 61 ± 7 µM (≈ 18.8 µg/mL), greater than 100 µM and greater than 200 µM.

(Values after publication PMC5215716, “A Target-Based Whole Cell Screen Approach To Identify Potential Inhibitors of Mycobacterium tuberculosis Signal Peptidase” (ACS Infectious Diseases, 2016).)
